Source: paper PMC10487708, “Chlorin E6-Curcumin-Mediated Photodynamic Therapy Promotes an Anti-Photoaging Effect in UVB-Irradiated Fibroblasts” (International Journal of Molecular Sciences, 2023)
Like-named read-outs stand apart in the source and are kept apart here.

Columns and labels:
[1] = ABTS radical scavenging activity; assay type: biochemical
Experimental: […] in 2.5 mM potassium persulfate for more than 16 h to develop 7 mM 2,2′-azinobis-(3-ethylbenzothiazoline-6-sulfonic acid diammonium salt) (ABTS), and ethanol was diluted to obtain an absorbance of 0.3 at 620 nm. Each composite sample was diluted by concentration, and 100 μL of the sample was put into each well along with 50 μL each of ABTS reagent and solvent; reacted at room temperature for 10 min, and absorbance was measured at 620 nm. ABTS activity inhibition (%) = 100 − [test group-blank]/(control group-blank) × 100]

[2] = test system: p-ERK, p-p38, JNK MAPK, p-NF-κB p65, p-c-JUN; assay: Western blot of MAPK, NF-κB and c-JUN signaling in UVB-induced 3T3 fibroblasts; assay type: cell-based, mouse; conditions: 3T3 cells; for phosphorylation level of JNK MAPK / phosphorylation levels of ERK and p38 MAPKs: PDT after UVB treatment
Text: One of the major factors of UVB-induced skin aging is inflammation-mediated skin aging. In UVB-induced skin photoaging, increased intracellular ROS can promote MMP production by activating the MAPK, AP-1, and NF-κB pathways. […] Ce6-diPEG-curcumin-PDT and Ce6-propane-curcumin-PDT lowered the phosphorylation levels of ERK and p38 MAPKs but not those of JNK MAPK.
Figure 9 Effect of Ce6-curcumin derivatives-PDT on MAPK, NF-κB and c-JUN signaling proteins. Protein expressions of p-p38, p-38, p-ERK, ERK, p-c-JUN, c-JUN, p-p65 and p65 in the UVB-induced murine 3T3 fibroblast cell line after Ce6-diPEG-curcumin (150 and 200 μΜ) and Ce6-propane-curcumin (75 and 100 μΜ)-PDT treatment. Representative bars are expressed as mean only.
(§1) The cells were lysed with RIPA lysis buffer containing protease inhibitor cocktails (Gen-DEPOT, Katy, TX, USA). Cell lysates were vortexed and centrifuged at 13,000 rpm for 15 min at 4 °C. Protein concentration was determined using the Bradford protein assay kit, and the same amount of protein was separated by SDS-PAGE gel. Then, proteins were transferred to a polyvinylidene fluoride (PVDF) membrane. Further, the membranes were blocked with a blocking solution containing 5% skim milk in Tris-buffered saline containing Tween 20 (TBST) for 1 h and incubated overnight with the primary antibody diluted in 5% skim milk in TBST at 4 °C. Then, the membrane was rinsed with TBST for 30 min and incubated with horseradish peroxidase-conjugated secondary antibodies in a blocking solution for 1 h. All bands were visualized by using an enhanced chemiluminescence (ECL) kit (Pierce, Rockford, IL, USA) under a luminescent image analyzer (Amersham, GE Healthcare, Chicago, IL, USA). The primary antibodies against MMP-1 were obtained from Thermo Fischer Scientific Inc. (NYSE: TMO). Antibodies directed against p-p65, p65, p-p38, p38, p-ERK, ERK, p-c-JUN, and c-JUN were purchased from Cell Signaling Technology Inc. (Beverley, MA, USA). COX-2 and β-Actin antibodies were from Santa Cruz Biotechnology (Santa Cruz, CA, USA), while TNF-α antibodies were procured from Novus Biologicals, Inc. (Centennial, CO, USA).

COX-2, TNF-α, iNOS = assay: Western blot of COX-2, TNF-α and iNOS in UVB-induced 3T3 fibroblasts; assay type: cell-based, mouse; conditions: for UVB-upregulated COX-2 and TNF-α protein levels: fibroblast cells
Text: We further investigated the expressions of COX-2, TNF-α, and MMP-1 to ascertain the effect of UVB on the expressions of NF-κB and AP-1-dependent genes. These genes have an NF-κB and AP-1 functional binding site in their promoter regions and are linked to inflammation.
Figure 10 Effect of Ce6-curcumin derivatives-PDT on UVB-induced COX-2 and iNOS expressions. […] Representative bars are expressed as mean only.
as §1

[3] = ORAC (oxygen radical absorbance capacity) assay; assay type: biochemical; conditions: Trolox equivalent
Experimental: The ORAC assay is based on the scavenging of peroxyl radicals generated by 2,2′-azobis(2-methylpropioamidine) dihydrochloride (AAPH), which prevents the degradation of the fluorescein probe. The ORAC values were calculated as the area under the curve (AUC) and expressed as µM of Trolox equivalent (TE).

BALB/c 3T3 cells = assay: MTT cytotoxicity of Ce6-curcumin derivative PDT in BALB/c 3T3 cells; assay type: cell-based, mouse; conditions: Mus musculus, BALB/c3T3, light or radiation study; 3 h treatment, 660 nm 20 J/cm^2, MTT after 24 h; read-out: IC50 BALB/c 3T3 cell viability
Experimental: MTT assay was used to evaluate viability after 24 h. IC50 values were calculated using GraphPad Prism 5 software.
Hs68 and BALB/c 3T3 cell viability was measured using a 3-[4,5-dimethylthylthiazol-2-yl]-2,5 diphenyl tetrazolium bromide (MTT) assay. The cells were cultured in 24-well plates at a density of 3 × 10^4 cells per well or BALB/c 3T3 cells at a density of 1 × 10^4 cells per well. […] The Hs68 cells were then exposed to LED light (660 nm; 89 W/m^2; 20 J/cm^2) for 37 min 27 s and incubated for 3 h. […] The cells were washed and treated with MTT, after which the plates were incubated at 37 °C in the dark for 2 h. After the formation of formazan, 100 µL of DMSO was added, and the absorbance was measured at 570 nm using a microtiter plate reader (Thermo-scientific, Skanlt software 5.0, Waltham, MA, USA)

[4] = test system: collagen synthesis in Hs68 cells; assay: Sircol collagen assay in UVB-irradiated Hs68 cells; assay type: cell-based, human; conditions: 30–40 nM, UVB 200 mJ/cm^2, LED irradiated
Experimental: The amount of collagen was measured through the Sircol collagen assay kit (Figure 8).
Each scale value is shown as the mean only.
Following this, 1 mL Sirius red dye, an anionic dye that reacts specifically with the basic side chain groups of collagens under the assay conditions, was added to 300 µL of cell culture medium supernatant and incubated with gentle rotation for 30 min at room temperature. After centrifugation, the pellet was washed with ice-cold acid-salt wash reagent released in alkali reagent, and the absorbance at 570 nm was measured using an ELISA reader (Sunrise, Tecan, Männedorf, Switzerland). The amount of collagen was calculated based on a standard curve obtained with the standard bovine type I collagen supplied with the kit.

[5] = LED light, read-out: LED Condition (EC50, μM) ABTS radical scavenging
[6] = dark, read-out: Dark Condition (EC50, μM) ABTS radical scavenging

## C=Cc1c(C)c2cc3nc(c(CC(=O)OC)c4[nH]c(cc5nc(cc1[nH]2)C(C)=C5CC)c(C)c4C(=O)NCCCOCCOCCOCCCNC(=O)CCCC(=O)Oc1ccc(/C=C/C(=O)CC(=O)/C=C/c2ccc(O)c(OC)c2)cc1OC)C(CCC(=O)OC)C3C (stereo not drawn) [Ce6-diPEG-curcumin]
[1]; [5]
  EC50: 22.3 ± 2.62 µM
[1]; dark
  ABTS EC50 value compared to the standard antioxidant 5-ALA hydrochloride: ~74%
[1]; [6]
  EC50: 15.51 ± 0.01 µM
[2]; 150 and 200 μM followed by laser irradiation
  UVB-induced increases in p-NF-κB p65 and p-c-JUN: greatly reversed this trend
[2]
  phosphorylation level of JNK MAPK: not
  phosphorylation levels of ERK and p38 MAPKs: lowered
COX-2, TNF-α, iNOS; 200 nM, PDT, UVB-induced 3T3
  expression levels of iNOS and COX-2: below those seen in the normal control
COX-2, TNF-α, iNOS; 150 and 200 μΜ
  UVB-upregulated COX-2 and TNF-α protein levels: downregulated these increases
[3]; LED 20 J/cm^2, 1 μM compound
  ORAC LED Condition (TE, μM): 0.85 µM
[3]; LED 20 J/cm^2, 10 μM compound
  ORAC LED Condition (TE, μM): 27.98 µM
[3]; 1 μM compound
  ORAC Dark Condition (TE, μM): 20.85 µM
[3]; 10 μM compound
  ORAC Dark Condition (TE, μM): 30.32 µM
BALB/c 3T3 cells
  IC50: 0.8 µM

## C=Cc1c(C)c2cc3nc(c(CC(=O)OC)c4[nH]c(cc5nc(cc1[nH]2)C(C)=C5CC)c(C)c4C(=O)NCCCNC(=O)CCCC(=O)Oc1ccc(/C=C/C(=O)CC(=O)/C=C/c2ccc(O)c(OC)c2)cc1OC)C(CCC(=O)OC)C3C (stereo not drawn) [Ce6-propane-curcumin]
[1]; [5]
  EC50: 34.9 ± 8.16 µM
[1]; [6]
  EC50: 18.9 ± 3.04 µM
[4]
  collagen synthesis: increase in collagen synthesis in a dose-dependent manner
[2]; 75 and 100 μM followed by laser irradiation
  UVB-induced increases in p-NF-κB p65 and p-c-JUN: greatly reversed this trend
[2]
  phosphorylation level of JNK MAPK: not
  phosphorylation levels of ERK and p38 MAPKs: lowered
COX-2, TNF-α, iNOS; 75 and 100 μΜ
  UVB-upregulated COX-2 and TNF-α protein levels: downregulated these increases
[3]; LED 20 J/cm^2, 1 μM compound
  ORAC LED Condition (TE, μM): 2.78 µM
[3]; LED 20 J/cm^2, 10 μM compound
  ORAC LED Condition (TE, μM): 30.66 µM
[3]; 1 μM compound
  ORAC Dark Condition (TE, μM): 20.11 µM
[3]; 10 μM compound
  ORAC Dark Condition (TE, μM): 26.83 µM
